Results published in patent publication US20210113492A1, “METHOD FOR INHIBITING PROLIFERATION AND METASTASIS OF CANCER CELLS BY USING NAPHTHOQUINONE DERIVATIVE” (National Tsing Hua University, priority 2019, published 2021).

Key:
[1] = test system: oral squamous cell carcinoma cells (OC3-IV2); experiment: Boyden chamber invasion assay, OC3-IV2; type: cell-based, human; details: 5, 7.5 and 10 μM, 24 h, dose dependency (FIG. 2A)
Protocol: (§1) Cells were harvested by […] and resuspended in a serum-free medium with 0.1% BSA. Then, […] of cell suspension (2×10^5 cells) was seeded into the upper insert of SPLInsert with Polyethylene terephthalate (PET) membrane (pore size: 8.0 μm) (SPL Lifesciences, Korea) pre-coated with matrigel (BD Biosciences, San Jose, Calif.). The bottom well of 24-well plate of SPLInsert was filled with cell medium containing 10% FBS with different concentrations of isoplumbagin (5, 7.5 and 10 μM, Experimental group of oral squamous cell carcinoma cells (OC3-IV2); 2.5, 5 and 10 μM, Experimental groups of human primary glioblastoma cells (U87), human non-small cell lung carcinoma cells (H1299), human prostate cancer cells (PC3) and human cervical cancer cells (Hela)) or without isoplumbagin (DMSO added). […] Number of cells was counted using Image J. Relative invasion ability was calculated as cell number per area.
(§2) FIGS. 2A-2E show the inhibitory effect of different doses of isoplumbagin on invasion for oral squamous cell carcinoma cells (OC3-IV2), human primary glioblastoma cells (U87), human non-small cell lung carcinoma cells (H1299), prostate cancer cells (PC3) and cervical cancer cells (Hela) assessed with the Boyden chamber assays. *Compared with solvent control (DMSO). […]

[2] = test system: human primary glioblastoma cells (U87); experiment: Mitochondrial morphology and distribution by immunofluorescence staining, U87; type: cell-based; details: 1 μM or 2.5 μM, 24 hours, anti-TOM20 staining
Protocol: (§3) The effects of isoplumbagin on mitochondrial morphology and distribution of OC3-IV2, U87, H1299 and PC3 cell lines were measured by immunofluorescence staining After OC3-IV2, U87, H1299, and PC3 cells were treated with DMSO, 1 μM, or 2.5 μM isoplumbagin for 24 hours, cells were fixed by 4% (v/v) paraformaldehyde and permeabilized by 0.1% (v/v) Triton X-100. Cells were incubated in blocking buffer containing 1% bovine serum albumin. After blocking, cells were incubated overnight with indicated primary antibodies against TOM20 (a mitochondria marker, sc-11415, Santa Cruz), and then incubated with Alexa Fluor 488-conjugated secondary antibodies (A11001, Invitrogen). Nucleus was stained with DAPI, actin was stained with rhodamine phalloidin (A12379, Invitrogen) and cells were mounted using Prolong Gold reagent (P36930, Invitrogen). 63 images were taken by LSM800 confocal microscopes (Zeiss).
(§4) FIGS. 5A-5D show the effect of isoplumbagin on mitochondrial morphogenesis and distribution of oral squamous cell carcinoma cells (OC3-IV2), human primary glioblastoma cells (U87), human non-small cell lung carcinoma cells (H1299) and human prostate cancer cells (PC3). Cells treated with either solvent control (DMSO) or isoplumbagin were determined by immunofluorescence staining using anti-TOM20 (mitochondria, green) antibody, rhodamine phalloidin (actin, red) and DAPI (nucleus, blue). […]

[3] = test system: human primary glioblastoma cells (U87); experiment: Boyden chamber invasion assay, U87; type: cell-based; details: 2.5, 5 and 10 μM, 24 h, no dose dependency (FIG. 2B)
Protocol: as §1, §2

[4] = test system: human cervical cancer cells (Hela); experiment: Boyden chamber invasion assay, Hela; type: cell-based; details: 2.5, 5 and 10 μM, 24 h, dose dependency (FIG. 2E)
Protocol: as §1, §2

[5] = test system: human prostate cancer cells (PC3); experiment: Mitochondrial morphology and distribution by immunofluorescence staining, PC3; type: cell-based; details: 1 μM or 2.5 μM, 24 hours, anti-TOM20 staining
Protocol: as §3, §4

[6] = test system: oral squamous cell carcinoma cells (OC3-IV2); experiment: Oxygen consumption rate in intact cells (O2k Oxygraph); type: cell-based, human; details: 2.5 μM, one independent experiment
Protocol: Oxygen consumption rate (OCR) in intact cells suspension was measured by O2k Oxygraph (Oroboros Instruments). DMSO or 2.5 μM isoplumbagin treated cells were detached from the plate by trypsinization and suspended at 5×10^5 cells/ml in DMEM/KSFM medium supplemented with 10% FBS into the O2k chambers. Oxygen consumption rate of DMSO or isoplumbagin treated cells samples were measured by adding 0.5 μM oligomycin, 0.5 μM FCCP, 1 μM rotenone and 1 μM antimycin A.
FIGS. 6A and 6B show the inhibitory effect of isoplumbagin on mitochondrial function and complex IV activity of oral squamous cell carcinoma cells (OC3-IV2). Oxygen consumption rate (OCR) of OC3-IV2 cells treated with DMSO (as control) or 2.5 μM isoplumbagin were measured by Oroboros instruments (FIG. 6A). […] OC3-IV2 cells treated with DMSO or 2.5 μM isoplumbagin were permeabilized with 5 μM digitonin (Dig) and added indicated substrates and inhibitors, and then mitochondria complex I/IV activity were determined by Oroboros instruments (FIG. 6B). Glu/Mal: glutamate (10 mM) and malate (2 mM), ADP (5 mM), Omy: oligomycin (0.5 μM), FCCP (0.5 nM), Rot: rotenone (1 μM), Ama: antimycin A (2 μM), TMPD: tetramethyl-p-phenylenediamine (0.1 mM), Asc: ascorbate (0.4 mM) and NaN3 5 mM. Data from three independent experiments are presented as mean ±SEM (*P<0.05, paired Student's t-test).

[7] = test system: oral squamous cell carcinoma cells (OC3-IV2); experiment: Mitochondrial morphology and distribution by immunofluorescence staining, OC3-IV2; type: cell-based, human; details: 1 μM or 2.5 μM, 24 hours, anti-TOM20 staining
Protocol: as §3, §4

For `CC1=CC(=O)c2cccc(O)c2C1=O` [isoplumbagin, 5-hydroxy-3-methyl-1,4-naphthoquinone], the “cancer cells migrating through the membrane (invasion)” value [1] was “decrease significantly”, the “mitochondrial morphogenesis and distribution” value [2] was “can alter the mitochondrial morphogenesis and distribution” and the “cancer cells migrating through the membrane (invasion)” value [3] was “decrease significantly”. The “cancer cells migrating through the membrane (invasion)” value [4] was “decrease significantly”, the “mitochondrial morphogenesis and distribution” value [5] was “can alter the mitochondrial morphogenesis and distribution” and the “mitochondrial function (oxygen consumption rate)” value [6] was “can reduce mitochondrial function”. For the same molecule, the “mitochondrial morphogenesis and distribution” value [7] was “can alter the mitochondrial morphogenesis and distribution”.
